Assay results: patent publication US20230140290A1, “SALICYLAMIDE DERIVATIVES AND RELATED METHODS OF MAKING” (THE BOARD OF REGENTS OF THE UNIVERSITY OF TEXAS SY, priority 2020, published 2023)

How the values were obtained:
Type in all cases: cell-based, HAdV-5
HAdV5-GFP [1] = experiment: Plaque assay (inhibition of HAdV plaque formation); details: for Selectivity index (SI): ratio of CC50 to IC50 in plaque assay; for inhibition at 10 µM: read-out: Plaque Assay (%) Inhibition (10 μM); for IC50: read-out: Plaque Assay IC50 (μM), HAdV5-GFP, low MOI, 293β5 cell line
Procedure, shortened: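 Compounds were present in the post-infection mixture at 10 μM, or at 10 to 0.3 μM for dose-response. Infection used low MOI HAdV5-GFP (0.06 vp/cell) on 80-90% confluent cells, 2 h rocking at 37° C, then a PBS wash.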

HAdV5-GFP [2] = experiment: Entry assay (HAdV5-mediated GFP expression); details: for inhibition at 50 µM: read-out: (%) Inhibition Entry Assay (50 μM)
Procedure, shortened: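 Human A549 cells (3×10^5/well) infected with HAdV5-GFP at 2000 vp/cell with compounds at 50 μM or in dose-response, in triplicate. Incubation 48 h at 37° C., 5% CO2. Standard infection curve from 2-fold virus dilutions without compound run in parallel.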

wild-type HAdV5 [3] = experiment: Nuclear-associated HAdV genomes (real-time PCR)
wild-type HAdV5 [4] = experiment: HAdV DNA quantification by real-time PCR (DNA replication); details: 24 h
Method: DNA Quantification by Real-Time PCR. […] Infected cells were incubated 24 h at 37° C. in 500 μL of complete DMEM containing 25 μM of either compounds or the same volume of DMSO (positive control). All samples were done in duplicate. After 24 h of incubation at 37° C., DNA was purified from the cell lysate with the QIAamp DNA Mini Kit (QIAGEN, Valencia, Calif.) following the manufacturer's instructions. TaqMan primers and probes for a common region of the HAdV5 were designed with the GenScript Real-Time PCR (TaqMan) Primer Design software (GenScript). […] Real-time PCR mixtures consisted of 9.5 μL of the purified DNA, AQ1 and AQ2 at a concentration of 200 nM each and Probe at a concentration of 50 nM in a total volume of 25 μL. The PCR cycling protocol was 95° C. for 3 min followed by 40 cycles of 95° C. for 10 s and 60° C. for 30 s. Human glyceraldehyde-3-phosphate dehydrogenase (GAPDH) gene was used as internal control. Oligonucleotides sequences for GAPDH and conditions were those previously reported by Henke-Gendo et al. (2012).
For quantification, gene fragments from hexon, and GAPDH were cloned into the pGEM-T Easy vector (Promega) and known concentrations of template were used to generate a standard curve in parallel for each experiment. All assays were performed in thermal cycler LightCycler® 96 System (Roche).
(§1) HAdV DNA Quantification by Real-Time PCR. […] All samples were done in duplicate. After 24 h of incubation at 37° C., DNA was purified from the cell lysate with the E.Z.N.A.® Tissue DNA Kit (Omega Bio-tek, Norcross, Ga.) following the manufacturer's instructions. TaqMan primers and probes for a common region of the HAdV5 were designed with the GenScript Real-Time PCR (TaqMan) Primer Design software (GenScript). […] Real-time PCR mixtures consisted of 9.5 μL of the purified DNA, AQ1 and AQ2 at a concentration of 200 nM each and Probe at a concentration of 50 nM in a total volume of 25 μL. The PCR cycling protocol was 95° C. for 3 min followed by 40 cycles of 95° C. for 10 s and 60° C. for 30 s. Human glyceraldehyde-3-phosphate dehydrogenase (GAPDH) gene was used as internal control. Oligonucleotides sequences for GAPDH and conditions were those previously reported by Henke-Gendo et al. (2012).
as §1, with “DNA” for “HAdV DNA”

[5] = A549, read-out: IC50 Entry Assay (μM), HAdV5-GFP, high MOI, A549 cell line
[6] = FIG. 3, 45 min post infection, concentrations by CC50 (2-50 μM)
[7] = FIG. 4, concentrations by CC50 (2-50 μM)

SMILES | Selectivity index (SI) (HAdV5-GFP [1]) | EC50 (HAdV5-GFP [1]; read-out: EC50 (plaque assay)) [µM] | inhibition at 10 µM (HAdV5-GFP [1]) [%] | inhibition at 50 µM (HAdV5-GFP [2]; A549, 48 h) [%] | EC50 (HAdV5-GFP [2]; A549, 48 h, read-out: EC50 (entry assay, as worded in text)) [µM] | IC50 (HAdV5-GFP [2]; [5]) [µM] | inhibition of accessibility of HAdV DNA to the nucleus (wild-type HAdV5 [3]; FIG. 5B, 45 min post-infection, 10-fold plaque IC50) | inhibition at 7.8 µM (wild-type HAdV5 [4]; read-out: inhibition of HAdV-5 DNA replication (qPCR)) [%] | IC50 (HAdV5-GFP [1]) [µM] | amount of nuclear-associated HAdV genomes versus DMSO (wild-type HAdV5 [3]; [6]) | inhibition of HAdV-5 DNA replication (qPCR) (wild-type HAdV5 [4]; [7]) | IC50 (HAdV5-GFP [2]; {}) [µM] | amount of nuclear-associated HAdV genomes versus DMSO (wild-type HAdV5 [3]; FIG. 5A, 45 min post-infection, 10-fold plaque IC50) | inhibition of HAdV-5 DNA replication (qPCR) (wild-type HAdV5 [4]; FIG. 6A, 10-fold plaque IC50)
O=C(NCC1CCCCC1)c1cc(Cl)ccc1O [Compound 161, 5-Chloro-N-(cyclohexylmethyl)-2-hydroxybenzamide] | > 100 | 0.78 | 100 | 98.6 ± 14.8 | 12.3 | 12.3 ± 4.8 | more than 99% | 50 | – | – | – | – | – | –
O=C(Nc1ccc([N+](=O)[O-])cc1F)c1cc(Cl)ccc1O [Compound 11, 5-Chloro-N-(2-fluoro-4-nitrophenyl)-2-hydroxybenzamide] | 218.2 | – | 98.7 ± 1.9 | 92.4 ± 0.2 | – | 1.57 ± 0.97 | – | – | 0.05 | partially inhibited | low inhibition | – | – | –
O=C(Nc1cc(F)cc(C(F)(F)F)c1)c1cc(Cl)ccc1O [Compound 17, 5-Chloro-N-(3-fluoro-5-(trifluoromethyl)phenyl)-2-hydroxybenzamide] | 666.7 | – | 100 | 100 | – | 2.23 ± 0.58 | – | – | – | no significant differences | low inhibition | – | – | –
O=C(N[C@H](Cc1ccccc1)C(=O)Nc1ccc([N+](=O)[O-])cc1Cl)c1cc(Cl)ccc1O [Compound 60, (R)-5-Chloro-N-(1-((2-chloro-4-nitrophenyl)amino)-1-oxo-3-phenylpropan-2-yl)-2-hydroxybenzamide] | 259.7 | – | 100 | 68.6 | – | 9.7 | – | – | 0.3 | partially inhibited | significant (p≤0.0001) inhibitory activity | – | – | –
CC1(Nc2ccc(NC(=O)c3cc(Cl)ccc3O)c(Cl)c2)CCCC1 [Compound 87, 5-Chloro-N-(2-chloro-4-((1-methylcyclopentyl)amino)phenyl)-2-hydroxybenzamide] | 580.7 | – | 100 | 85.4 | – | 15.2 to 30.8 | – | – | 0.27 | – | – | 15.2 ± 5.1 | partially inhibited | moderate inhibition
CC(C)[C@H](NC(=O)c1cc(Cl)ccc1O)C(=O)Nc1ccc([N+](=O)[O-])cc1Cl [Compound 58, (S)-5-Chloro-N-(1-((2-chloro-4-nitrophenyl)amino)-3-methyl-1-oxobutan-2-yl)-2-hydroxybenzamide] | 444.4 | – | 100 | 81.8 | – | 11.2 | – | – | – | no significant differences | low inhibition | – | – | –
